# Reference: article PMC7920804 (Bioorganic & Medicinal Chemistry Letters, 2021)
# pIC50: −log10 of the molar value.
# Biological target: T1, CYP1A2 (Homo sapiens, UniProt P05177)
# T1 sequence (P05177 1-516): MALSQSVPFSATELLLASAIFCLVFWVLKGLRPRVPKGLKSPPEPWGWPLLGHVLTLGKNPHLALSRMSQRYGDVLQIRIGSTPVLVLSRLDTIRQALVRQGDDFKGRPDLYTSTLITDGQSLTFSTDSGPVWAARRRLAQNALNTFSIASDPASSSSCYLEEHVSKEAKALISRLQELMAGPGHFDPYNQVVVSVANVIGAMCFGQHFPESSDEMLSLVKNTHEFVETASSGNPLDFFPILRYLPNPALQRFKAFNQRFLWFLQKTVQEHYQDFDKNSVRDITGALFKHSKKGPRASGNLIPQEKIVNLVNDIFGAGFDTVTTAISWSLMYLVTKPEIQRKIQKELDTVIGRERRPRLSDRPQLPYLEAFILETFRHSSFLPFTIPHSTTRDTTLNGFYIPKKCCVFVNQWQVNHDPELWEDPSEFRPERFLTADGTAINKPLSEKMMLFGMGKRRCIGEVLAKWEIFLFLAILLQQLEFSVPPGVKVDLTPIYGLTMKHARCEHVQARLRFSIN
# Assay: CYP inhibition assay, 1A2
# Format: in vitro ADME
# Details: not given
row,SMILES,inhibition at 10 µM
1,"O=c1[nH]c(Nc2cc(Cl)cc(Cl)c2)nc2cccc(O)c12 [Compound 11e, 2-((3,5-dichlorophenyl)amino)-5-hydroxyquinazolin-4(3H)-one]",> 65%

# Tested on: SARS-CoV-2
# Assay: microbe, parasite or virus in culture
# Details: Severe acute respiratory syndrome coronavirus 2, Vero, read-out: SARS-CoV-2 IC50
row,SMILES,pIC50
1,"O=c1[nH]c(Nc2cc(Cl)cc(Cl)c2)nc2cc(Cl)ccc12 [Compound 9g, 7-chloro-2-((3,5-dichlorophenyl)amino)quinazolin-4(3H)-one]",> 6.60
2,COc1cccc(Nc2nc3cc(Cl)ccc3c(=O)[nH]2)c1 [Compound 9h],< 4.96
3,O=c1[nH]c(NCC2CCCCC2)nc2cc(Cl)ccc12 [Compound 9n],< 4.85
4,CC(C)Nc1nc2cc(Cl)ccc2c(=O)[nH]1 [Compound 9o],< 4.85
5,CCCCNc1nc2cc(Cl)ccc2c(=O)[nH]1 [Compound 9p],< 4.85
6,O=c1[nH]c(N2CCCCC2)nc2cc(Cl)ccc12 [Compound 9q],< 4.85
7,"O=c1[nH]c(Nc2cc(Cl)cc(Cl)c2)nc2cccc(O)c12 [Compound 11e, 2-((3,5-dichlorophenyl)amino)-5-hydroxyquinazolin-4(3H)-one]",> 6.60

# Biological target: CYP3A4 (Homo sapiens, UniProt P08684)
# Assay: CYP inhibition assay, 3A4
# Format: in vitro ADME
# Details: not given
# Sequence of CYP3A4 (P08684 whole entry): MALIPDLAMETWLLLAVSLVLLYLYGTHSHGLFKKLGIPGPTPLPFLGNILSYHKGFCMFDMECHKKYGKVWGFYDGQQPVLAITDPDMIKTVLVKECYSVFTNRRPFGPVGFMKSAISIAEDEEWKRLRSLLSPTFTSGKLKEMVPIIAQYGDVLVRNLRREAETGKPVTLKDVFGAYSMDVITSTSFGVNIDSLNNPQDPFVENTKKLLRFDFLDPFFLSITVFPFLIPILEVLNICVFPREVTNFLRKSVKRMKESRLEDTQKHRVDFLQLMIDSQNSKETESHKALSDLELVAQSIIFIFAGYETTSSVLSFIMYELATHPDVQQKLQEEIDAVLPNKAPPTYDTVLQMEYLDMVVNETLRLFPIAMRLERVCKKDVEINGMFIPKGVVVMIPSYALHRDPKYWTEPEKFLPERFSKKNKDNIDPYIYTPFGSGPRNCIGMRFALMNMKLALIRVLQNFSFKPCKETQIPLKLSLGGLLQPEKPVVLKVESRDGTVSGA
row,SMILES,inhibition at 10 µM
1,"O=c1[nH]c(Nc2cc(Cl)cc(Cl)c2)nc2cccc(O)c12 [Compound 11e, 2-((3,5-dichlorophenyl)amino)-5-hydroxyquinazolin-4(3H)-one]",> 65%

# Tested on: not listed separately
# Assay: in vivo
# Details: rat, po, 10 mg/kg
row,SMILES,Cmax
1,"O=c1[nH]c(Nc2cc(Cl)cc(Cl)c2)nc2cccc(O)c12 [Compound 11e, 2-((3,5-dichlorophenyl)amino)-5-hydroxyquinazolin-4(3H)-one]",60 ng/mL

# Tested on: SARS-CoV-2
# Assay: not given
# Details: not given
row,SMILES,SARS-CoV-2 IC50
1,O=c1[nH]c(Nc2ccccc2F)nc2cc(Cl)ccc12 [Compound 9a],no inhibitory effect
2,O=c1[nH]c(Nc2ccc(F)cc2)nc2cc(Cl)ccc12 [Compound 9c],no inhibitory effect
3,O=c1[nH]c(Nc2ccc(F)cc2F)nc2cc(Cl)ccc12 [Compound 9d],no activity
4,Nc1ccc2c(=O)[nH]c(Nc3cc(F)cc(F)c3)nc2c1 [Compound 10c],no inhibitory effects
5,COc1cccc2nc(Nc3cc(F)cc(F)c3)[nH]c(=O)c12 [Compound 10d],no inhibitory effects
6,O=c1[nH]c(Nc2cc(F)cc(F)c2)nc2cc(O)ccc12 [Compound 10g],no inhibitory effects
7,Cc1cc(C)c2nc(Nc3cc(F)cc(F)c3)[nH]c(=O)c2c1 [Compound 10h],no inhibitory effects
8,Nc1ccc2c(=O)[nH]c(Nc3cc(Cl)cc(Cl)c3)nc2c1 [Compound 11c],no inhibitory effects
9,COc1cccc2nc(Nc3cc(Cl)cc(Cl)c3)[nH]c(=O)c12 [Compound 11d],no inhibitory effects
10,O=c1[nH]c(Nc2cc(Cl)cc(Cl)c2)nc2cc(O)ccc12 [Compound 11g],no inhibitory effects
11,"Cc1cc(C)c2nc(Nc3cc(Cl)cc(Cl)c3)[nH]c(=O)c2c1 [Compound 11h, 2-((3,5-Dichlorophenyl)amino)-6,8-dimethylquinazolin-4(3H)-one]",no inhibitory effects
12,O=c1[nH]c(Nc2cc(Cl)cc(Cl)c2)nc2cc(N3CCOCC3)ccc12 [Compound 11k],no anti-SARS-CoV-2 activity
